Oligonucleotides are written 5' to 3', each unit as a sugar letter and its base; * is a phosphorothioate linkage, no mark a phosphodiester; rarer units and linkages stand in square brackets, end groups in braces. Plain capitals give the bases only. d = 2'-deoxy (DNA); r = 2'-OH (RNA)
What follows are substances tested against DENND5A (assay: reporter assay of Huesken 2005). Settings: siRNA.
Note: test concentration or dose not given here.

Compared with “sense rUrUrGrArCrCrArArGrArUrGrCrArGrUrArGrGdTdT / antisense rCrCrUrArCrUrGrCrArUrCrUrUrGrGrUrCrArAdAdG”, “sense rGrArGrCrUrGrCrUrCrArCrArUrCrCrCrArGrCdTdT / antisense rGrCrUrGrGrGrArUrGrUrGrArGrCrArGrCrUrCdCdC” is lower in normalised inhibition (eCFP-eYFP dual reporter): 57.9% for the first, 42.6% for the second.

First: sense rArGrArGrUrGrCrCrUrCrCrArArGrCrUrGrArAdTdT / antisense rUrUrCrArGrCrUrUrGrGrArGrGrCrArCrUrCrUdCdA
Second: sense rArCrCrCrCrArGrCrArGrCrArArUrArArGrGrAdTdT / antisense rUrCrCrUrUrArUrUrGrCrUrGrCrUrGrGrGrGrUdCdT
The normalised inhibition (eCFP-eYFP dual reporter) of the first is higher: 66.9% for the first, 64.9% for the second.

First: sense rCrUrGrGrArUrUrGrCrCrCrUrGrCrUrGrGrCrUdTdT / antisense rArGrCrCrArGrCrArGrGrGrCrArArUrCrCrArGdTdG
Second: sense rUrGrArArGrArGrGrUrGrArCrUrArGrCrArArGdTdT / antisense rCrUrUrGrCrUrArGrUrCrArCrCrUrCrUrUrCrAdTdA
The normalised inhibition (eCFP-eYFP dual reporter) of the first is lower: 63.7% for the first, 68.6% for the second.

Compared with “sense rCrArArGrArUrCrArGrGrCrUrGrUrUrGrArArUdTdT / antisense rArUrUrCrArArCrArGrCrCrUrGrArUrCrUrUrGdTdC”, “sense rArGrCrUrGrArArGrArGrGrCrUrGrCrGrGrGrCdTdT / antisense rGrCrCrCrGrCrArGrCrCrUrCrUrUrCrArGrCrUdTdG” is lower in normalised inhibition (eCFP-eYFP dual reporter): 55.7% for the first, 54.9% for the second.

First: sense rUrCrUrGrArUrGrUrArCrUrUrUrCrCrArCrUrGdTdT / antisense rCrArGrUrGrGrArArArGrUrArCrArUrCrArGrAdCdT
Second: sense rArUrUrGrCrCrArGrCrCrUrUrUrGrUrGrArUrCdTdT / antisense rGrArUrCrArCrArArArGrGrCrUrGrGrCrArArUdCdA
The normalised inhibition (eCFP-eYFP dual reporter) of the first is lower: 47.9% for the first, 48.5% for the second.

Compared with “sense rGrGrUrGrCrCrGrCrUrCrCrCrArCrCrUrCrCrUdTdT / antisense rArGrGrArGrGrUrGrGrGrArGrCrGrGrCrArCrCdTdC”, “sense rCrArGrArUrCrUrGrCrArGrUrGrCrArArUrGrCdTdT / antisense rGrCrArUrUrGrCrArCrUrGrCrArGrArUrCrUrGdCdT” is higher in normalised inhibition (eCFP-eYFP dual reporter): 39% for the first, 56.3% for the second.

Compared with “sense rGrGrCrUrGrGrCrArUrUrCrArArGrArCrCrCrAdTdT / antisense rUrGrGrGrUrCrUrUrGrArArUrGrCrCrArGrCrCdCdT”, “sense rArUrUrGrArCrArArCrCrArCrUrUrCrArUrUrGdTdT / antisense rCrArArUrGrArArGrUrGrGrUrUrGrUrCrArArUdGdT” is lower in normalised inhibition (eCFP-eYFP dual reporter): 75.8% for the first, 48.7% for the second.

“sense rCrUrCrArArGrArGrGrCrUrArArCrCrUrCrUrGdTdT / antisense rCrArGrArGrGrUrUrArGrCrCrUrCrUrUrGrArGdGdC” showed a normalised inhibition (eCFP-eYFP dual reporter) of 52.3%.

What follows are substances tested against MRFAP1 (assay: reporter assay of Huesken 2005). Settings: siRNA.

Compared with “sense rCrUrCrUrGrArGrGrArGrArGrCrGrCrUrCrUrCdTdT / antisense rGrArGrArGrCrGrCrUrCrUrCrCrUrCrArGrArGdGdC”, “sense rCrArArGrArCrGrCrArGrGrUrArGrArGrGrCrCdTdT / antisense rGrGrCrCrUrCrUrArCrCrUrGrCrGrUrCrUrUrGdAdT” is higher in normalised inhibition (eCFP-eYFP dual reporter): 48.8% for the first, 73.2% for the second.

First: sense rGrGrGrUrGrArCrCrUrGrArUrArGrCrUrCrCrCdTdT / antisense rGrGrGrArGrCrUrArUrCrArGrGrUrCrArCrCrCdAdA
Second: sense rUrCrCrCrUrGrArArCrUrUrUrGrGrGrUrCrCrCdTdT / antisense rGrGrGrArCrCrCrArArArGrUrUrCrArGrGrGrAdGdC
The normalised inhibition (eCFP-eYFP dual reporter) of the first is higher: 87.1% for the first, 53.3% for the second.

Compared with “sense rArGrUrGrArUrGrGrCrGrArUrUrGrGrCrUrGrAdTdT / antisense rUrCrArGrCrCrArArUrCrGrCrCrArUrCrArCrUdCdA”, “sense rUrArGrArArGrArGrGrArCrUrCrCrArUrGrCrAdTdT / antisense rUrGrCrArUrGrGrArGrUrCrCrUrCrUrUrCrUrAdGdA” is lower in normalised inhibition (eCFP-eYFP dual reporter): 85.8% for the first, 68.6% for the second.

First: sense rCrUrGrArCrArCrUrArCrGrUrUrUrCrUrGrCrUdTdT / antisense rArGrCrArGrArArArCrGrUrArGrUrGrUrCrArGdTdG
Second: sense rUrCrCrUrGrGrCrUrUrUrGrGrUrGrUrGrUrUrCdTdT / antisense rGrArArCrArCrArCrCrArArArGrCrCrArGrGrAdAdT
The normalised inhibition (eCFP-eYFP dual reporter) of the first is higher: 99.3% for the first, 66.9% for the second.

Compared with “sense rArUrCrCrUrUrGrCrArArUrArCrCrCrUrUrUrGdTdT / antisense rCrArArArGrGrGrUrArUrUrGrCrArArGrGrArUdCdT”, “sense rCrUrUrGrGrArGrUrUrGrGrArGrCrUrCrArCrCdTdT / antisense rGrGrUrGrArGrCrUrCrCrArArCrUrCrCrArArGdTdC” is lower in normalised inhibition (eCFP-eYFP dual reporter): 66.3% for the first, 55.2% for the second.

For “sense rUrCrGrGrArGrGrArUrUrGrUrArUrUrGrUrUrUdTdT / antisense rArArArCrArArUrArCrArArUrCrCrUrCrCrGrAdCdC”, the normalised inhibition (eCFP-eYFP dual reporter) was 54.7%.
